Like-named read-outs stand apart in the source and are kept apart here.
What was measured:
Format in all cases: cell-based, human
A2780R cells = assay: Cytotoxicity of cisplatin/GMP NCP, MTS assay
Procedure: (§1) The cytotoxicity of NCP particles carrying cisplatin, GMP, and thiol siRNAs targeting survivin, Bcl-2, and ERCC-1 were evaluated against human ovarian cancer cells A2780, A2780/CDDP, SKOV-3 and human non-small cell lung cancer cell H460 by MTS assay.

H460 cells [1] = assay: Cytotoxicity of cisplatin/GMP NCP, MTS assay
SKOV-3 cells [2] = assay: Cytotoxicity of cisplatin/GMP NCP, MTS assay
SQ20B cells [3] = assay: Efflux of cisplatin and pyrolipid; conditions: after 4-h uptake
Procedure: The efflux of cisplatin and pyrolipid in SQ20B cells was quantified as follows. SQ20B cells were seeded on 6-well plates at 5×10^5 cells/well and incubated for 24 h. […] After incubating for 4 h, the culture medium was discarded and the cells were washed with PBS three times. […] Results were expressed as the percent of the amount of cisplatin or pyrolipid being effluxed compared to the 4-h cellular uptake amount. In order to understand the cellular uptake dynamics of NCP-1-pyrolipid, the efflux of cisplatin and pyrolipid in different formulations was determined. […] The cisplatin or pyrolipid amounts detected in the culture medium were compared with the 4-h uptake amounts to give the percent efflux (Table 9).

A2780 cells [4] = assay: Cytotoxicity of cisplatin/GMP NCP, MTS assay
Procedure: as §1

H460 cells [5] = assay: Cytotoxicity of Pten and Pten-NCP
[6] = test system: cisplatin-resistant ovarian cancer cells; assay: DNA ladder and Annexin V conjugate staining (UiO)
Procedure: Annexin V conjugate staining provided further evidence to the apoptosis induced by siRNA/UiO-Cis. siRNA loaded in the NMOFs were efficiently internalized into the cytoplasm after a 24-h incubation to trigger MDR-relevant gene silencing.

SQ20B cells [7] = assay: Cytotoxicity with or without irradiation, MTS assay; conditions: read-out: Cisplatin IC50
Procedure: (§2) The cells were seeded on 96-well plates at 2500 cells/well. […] After a 24-h incubation, the cells were irradiated with LED light (670 nm) at 60 mW/cm^2 for 15 min (equals to 54 J/cm^2). The cells without irradiation treatment served as controls. The cells were further incubated for 48 h. The cell viability was detected by (3-(4,5-dimethylthiazol-2-yl)-5-(3-carboxymethoxyphenyl)-2-(4-sulfophenyl)-2H-tetrazolium) (MTS) assay (Promega, Madison, Wis., United States of America) and the IC50 values were calculated accordingly. […] These findings were further supported by the flow cytometry results (Table 11).

JSQ3 cells = assay: as above; conditions: read-out: Cisplatin IC50
Procedure: as §2

SCC61 cells = assay: as above; conditions: read-out: Cisplatin IC50
Procedure: as §2

HNSCC135 cells = assay: as above; conditions: read-out: Cisplatin IC50
Procedure: as §2

SQ20B cells [8] = assay: Flow cytometry, apoptosis and necrosis (Annexin V/PI)
Procedure: SQ20B cells were seeded at 1×10^6 cells per well in 6-well plates and further cultured for 24 h. […] Cells incubated with PBS served as control. After a 24 h […] incubation, the cells were irradiated with light emitting diode (LED) light (670 nm) at 60 mW/cm^2 for 15 min (equals to 54 J/cm^2). Following a further incubation of 48 h, the floating and adherent cells were collected and stained with Alexa Fluor 488 Annexin V/dead cell apoptosis kit with Alexa Fluor 488 annexin V and PI (Invitrogen, Carlsbad, Calif., United States of America) according to manufacturer's instructions. The apoptosis and necrosis was examined on a flow cytometer (LSRII Blue, Becton, Dickinson, and Company, Franklin Lakes, N.J., United States of America).

SQ20B cells [9] = assay: Time-dependent cellular uptake (ICP-MS, fluorimetry); conditions: cisplatin dose 5 μM
Procedure: The cellular uptake of NCP-1 particles in SQ20B cells was quantified by ICP-MS. […] The cells were centrifuged at 3,000 rpm for 5 min and the cell pellet was digested with 500 μL of concentrated nitric acid. […] Results were expressed as the amount of cisplatin (ng) per 10^5 cells.

SKOV-3 cells [10] = assay: Cytotoxicity of UiO formulations, MTS assay; conditions: read-out: cisplatin IC50
Procedure: To examine whether the efficient and simultaneous knockdown of three MDR-relevant genes including survivin, Bcl-2, and P-gp could effectively reverse the cisplatin resistance in ovarian cancer cells, the cytotoxicity of free cisplatin, UiO-Cis, and siRNA/UiO-Cis was assessed by 3-(4,5-dimethylthiazol-2-yl)-5-(3-carboxymethoxy-phenyl)-2-(4-sulfophenyl)-2H-tetrazolium (MTS) assay.

SKOV-3 cells [11] = assay: In vitro cytotoxicity, MTS assay; conditions: after a 72 h incubation, read-out: Cisplatin IC50
Procedure: (§3) ES-2, OVCAR-3, SKOV-3, A2780, and A2780/CDDP cells were seeded at 5000 cells per well in 96-well plates and further cultured for 24 h. The culture media were replaced by 100 μL of fresh culture media containing 10% FBS. Cisplatin solution, NCP-1, NCP-1/siRNA containing pooled siRNAs, NCP-1/siRNA containing single siRNA, and Zn control/siRNA containing pooled siRNAs were added to the cells at different cisplatin or siRNA dose. Following incubation for 24 h, the cell viability was determined by (3-(4,5-dimethylthiazol-2-yl)-5-(3-carboxymethoxyphenyl)-2-(4-sulfophenyl)-2H-tetrazolium) (MTS) assay (Promega Corporation, Madison, Wis., United States of America) according to the manufacturer's instructions. […] The cytotoxicity of Zn control/siRNAs at the siRNA doses corresponding to cisplatin IC50 values was also evaluated.

A2780 cells [12] = assay: In vitro cytotoxicity, MTS assay; conditions: after a 72 h incubation, read-out: Cisplatin IC50
Procedure: as §3

A2780/CDDP cells = assay: In vitro cytotoxicity, MTS assay; conditions: after a 72 h incubation, read-out: Cisplatin IC50
Procedure: as §3

ES-2 cells = assay: In vitro cytotoxicity, MTS assay; conditions: after a 72 h incubation, read-out: Cisplatin IC50
Procedure: as §3

OVCAR-3 cells = assay: In vitro cytotoxicity, MTS assay; conditions: after a 72 h incubation, read-out: Cisplatin IC50
Procedure: as §3

[13] = read-out: IC50 as GMP concentration (numbers in parenthesis)

Compound: gemcitabine monophosphate [GMP]
- IC50 (A2780R cells; [13]): 0.12 µM
- IC50 (H460 cells [1]; [13]): 3.3 µM
- IC50 (SKOV-3 cells [2]; [13]): 2.8 µM

Compound: N.N.[Cl][Pt][Cl] [Free cisplatin, cisplatin]
- Cisplatin efflux (SQ20B cells [3]; 1 h): 12.0 ± 1.5%
- Cisplatin efflux (SQ20B cells [3]; 2 h): 13.5 ± 0.2%
- Cisplatin efflux (SQ20B cells [3]; 4 h): 18.2 ± 5.1%
- Cisplatin efflux (SQ20B cells [3]; 24 h): 20.0 ± 5.4%
- Cisplatin efflux (SQ20B cells [3]; 24 h, listed as free cisplatin): 20.0%
- IC50 (A2780 cells [4]): 0.764 ± 0.183 µM
- IC50 (A2780R cells; read-out: Cisplatin IC50): 13.6 ± 3.2 µM
- IC50 (H460 cells [5]): 4.8 µM
- DNA fragmentation (DNA ladder) [6]: No DNA fragmentation was detectable
- IC50 (SQ20B cells [7]; irradiation No): 3.92 ± 0.15 µM
- IC50 (SQ20B cells [7]; irradiation Yes): 4.18 ± 0.11 µM
- IC50 (JSQ3 cells; irradiation No): 11.3 ± 1.2 µM
- IC50 (JSQ3 cells; irradiation Yes): 13.3 ± 2.03 µM
- IC50 (SCC61 cells; irradiation No): 3.46 ± 0.08 µM
- IC50 (SCC61 cells; irradiation Yes): 3.69 ± 0.28 µM
- IC50 (HNSCC135 cells; irradiation No): 3.37 ± 0.73 µM
- IC50 (HNSCC135 cells; irradiation Yes (670 nm, 54 J/cm^2)): 2.65 ± 0.13 µM
- Necrosis % (SQ20B cells [8]; w/irradiation): 0.2%
- Apoptosis % (SQ20B cells [8]; w/irradiation, cisplatin 5 μM or equivalent pyrolipid): 38.1%
- Apoptosis % (SQ20B cells [8]; w/o irradiation): 37.9%
- Necrosis % (SQ20B cells [8]; w/o irradiation): 0.2%
- Cisplatin uptake (SQ20B cells [9]; 1 h): 51.7 ± 4.5 ng/10^5 cells
- Cisplatin uptake (SQ20B cells [9]; 2 h): 43.5 ± 1.4 ng/10^5 cells
- Cisplatin uptake (SQ20B cells [9]; 4 h): 38.1 ± 0.8 ng/10^5 cells
- Cisplatin uptake (SQ20B cells [9]; 24 h): 38.5 ± 1.3 ng/10^5 cells
- IC50 (H460 cells [1]; read-out: Cisplatin IC50): 4.6 ± 0.6 µM
- IC50 (SKOV-3 cells [10]): 48.5 ± 4.3 µM
- IC50 (SKOV-3 cells [2]; read-out: Cisplatin IC50): 4.6 ± 0.7 µM
- IC50 (SKOV-3 cells [11]): 59.5 ± 1.2 µM
- IC50 (A2780 cells [12]): 4.4 ± 1 µM
- IC50 (A2780/CDDP cells): 24 ± 3.1 µM
- IC50 (ES-2 cells): 37.6 ± 1.9 µM
- IC50 (OVCAR-3 cells): 44.4 ± 3.2 µM

Source: patent US20200085742A1, “NANOSCALE CARRIERS FOR THE DELIVERY OR CO-DELIVERY OF CHEMOTHERAPEUTICS, NUCLEIC ACIDS AND PHOTOSENSITIZERS” (The University of Chicago, priority 2013, published 2020)
